US10947242B2, “[1,2,4]triazolo[1,5and#8208;A]pyrimidine compounds as PDE2 inhibitors” (Janssen Pharmaceutica NV, priority 2016, dated 2021)
Where two headings read alike, the source gives them in different places.

Tests used:
Assay type in all cases: biochemical
[1] = biological target: T1, Human recombinant PDE3A (hPDE3A) (Homo sapiens, UniProt Q14432); assay: In vitro assay PDE3A (SPA, 3H-cAMP hydrolysis); settings: for IC50: hPDE3B pIC50, read-out: pIC50 (converted); for Emax: read-out: hPDE3B Emax, read-out: Emax;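 for all read-outs here: the method names PDE3A and the table heading PDE3B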
T1 construct: purchased Scottish Biomedical; host or cells: Sf9 insect cells
How it was run: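 Radiometric SPA measuring [3H]-cAMP hydrolysis (0.4 μM cAMP, 2.4 μCi/ml) over 60 min at room temperature, in Tris pH 7.8 buffer with MgCl2 and EGTA, 1% DMSO. Enzyme: recombinant human brain PDE3A expressed in Sf9 cells, used as partially purified lysate. Counts compared with enzyme-free blanks and vehicle controls.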

[2] = biological target: T2, Human recombinant PDE2A (hPDE2A) (Homo sapiens, UniProt O00408); assay: In vitro assay PDE2A (SPA, 3H-cGMP hydrolysis); settings: for Emax: read-out: hPDE2A Emax
T2 construct: His tag (inferred from metal chelate purification); made in house; host or cells: Sf9 insect cells (baculovirus)

[3] = biological target: T3, Human recombinant PDE10A (hPDE10A) (Homo sapiens, UniProt Q9Y233); assay: In vitro assay PDE10A, human clone (SPA, 3H-cAMP hydrolysis)
T3 construct: His tag (inferred from metal chelate purification); made in house; host or cells: Sf9 insect cells (baculovirus)
How it was run: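 Hydrolysis of 3H-cAMP (60 nM cAMP, 0.008 μCi tracer) proceeded for 60 min at room temperature, with the product detected by SPA bead scintillation counting. The enzyme was hPDE10A from baculovirus-infected Sf9 cells in Tris pH 7.8 buffer with MgCl2 and EGTA, and compounds were at 1% DMSO final. Blanks lacked enzyme.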

[4] = read-out: hPDE2A pIC50 (converted)
[5] = human clone (h), default, read-out: hPDE10A2 Emax
[6] = human clone (h), default, read-out: hPDE10A2 pIC50 (converted)
[7] = human clone by default (no (r) mark), read-out: hPDE10A2 or rPDE10A2 Emax
[8] = human clone by default (no (r) mark), read-out: hPDE10A2 or rPDE10A2 pIC50 (converted)

T3 sequence (Q9Y233 267-1055): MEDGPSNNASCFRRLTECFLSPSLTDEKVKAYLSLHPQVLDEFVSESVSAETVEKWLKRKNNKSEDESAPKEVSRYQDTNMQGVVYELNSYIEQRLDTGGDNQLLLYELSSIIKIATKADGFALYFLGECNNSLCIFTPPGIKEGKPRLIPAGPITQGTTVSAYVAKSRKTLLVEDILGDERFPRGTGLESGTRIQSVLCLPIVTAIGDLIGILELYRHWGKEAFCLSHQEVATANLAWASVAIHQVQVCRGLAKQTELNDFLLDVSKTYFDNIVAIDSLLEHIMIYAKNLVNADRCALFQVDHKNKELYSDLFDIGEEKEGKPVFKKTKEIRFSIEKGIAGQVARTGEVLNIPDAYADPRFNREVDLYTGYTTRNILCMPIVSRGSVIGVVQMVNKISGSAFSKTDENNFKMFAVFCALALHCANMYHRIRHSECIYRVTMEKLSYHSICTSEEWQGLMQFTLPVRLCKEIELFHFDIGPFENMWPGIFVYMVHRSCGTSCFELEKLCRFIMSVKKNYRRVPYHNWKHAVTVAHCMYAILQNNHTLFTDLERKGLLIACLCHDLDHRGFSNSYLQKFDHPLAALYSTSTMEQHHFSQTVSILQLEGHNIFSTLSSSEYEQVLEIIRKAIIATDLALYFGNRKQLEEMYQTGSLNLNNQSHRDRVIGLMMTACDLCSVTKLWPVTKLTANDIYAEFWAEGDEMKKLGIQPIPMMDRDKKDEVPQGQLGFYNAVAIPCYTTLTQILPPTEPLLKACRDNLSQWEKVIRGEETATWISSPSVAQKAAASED
T1 sequence (Q14432 whole entry): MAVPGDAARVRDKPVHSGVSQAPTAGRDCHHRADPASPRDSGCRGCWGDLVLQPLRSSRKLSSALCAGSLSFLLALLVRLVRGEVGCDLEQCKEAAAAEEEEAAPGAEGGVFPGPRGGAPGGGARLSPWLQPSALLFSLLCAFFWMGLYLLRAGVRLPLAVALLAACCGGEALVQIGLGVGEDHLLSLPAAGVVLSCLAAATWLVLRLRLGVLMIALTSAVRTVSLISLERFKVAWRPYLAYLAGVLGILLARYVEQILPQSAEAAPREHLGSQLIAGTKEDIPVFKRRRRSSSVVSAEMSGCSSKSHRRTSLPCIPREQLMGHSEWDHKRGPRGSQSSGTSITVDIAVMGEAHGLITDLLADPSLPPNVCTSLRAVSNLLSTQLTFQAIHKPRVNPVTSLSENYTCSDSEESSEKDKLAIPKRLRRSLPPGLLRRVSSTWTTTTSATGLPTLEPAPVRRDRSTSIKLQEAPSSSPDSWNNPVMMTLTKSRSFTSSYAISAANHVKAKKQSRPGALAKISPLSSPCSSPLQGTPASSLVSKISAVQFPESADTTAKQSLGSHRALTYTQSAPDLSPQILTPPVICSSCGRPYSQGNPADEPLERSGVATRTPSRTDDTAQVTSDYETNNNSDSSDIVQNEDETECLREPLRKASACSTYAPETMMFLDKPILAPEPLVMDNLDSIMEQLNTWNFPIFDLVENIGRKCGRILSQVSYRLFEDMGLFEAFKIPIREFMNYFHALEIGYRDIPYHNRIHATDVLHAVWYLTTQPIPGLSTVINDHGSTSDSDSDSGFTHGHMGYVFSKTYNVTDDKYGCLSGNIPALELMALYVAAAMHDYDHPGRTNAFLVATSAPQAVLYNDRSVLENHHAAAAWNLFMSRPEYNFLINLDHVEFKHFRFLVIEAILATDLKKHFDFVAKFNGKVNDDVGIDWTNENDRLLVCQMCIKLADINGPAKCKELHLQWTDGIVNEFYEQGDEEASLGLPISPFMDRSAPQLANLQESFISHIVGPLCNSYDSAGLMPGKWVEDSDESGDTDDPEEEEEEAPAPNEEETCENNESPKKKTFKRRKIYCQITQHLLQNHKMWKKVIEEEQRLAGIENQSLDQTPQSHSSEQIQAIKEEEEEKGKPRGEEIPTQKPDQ
T2 sequence (O00408 whole entry): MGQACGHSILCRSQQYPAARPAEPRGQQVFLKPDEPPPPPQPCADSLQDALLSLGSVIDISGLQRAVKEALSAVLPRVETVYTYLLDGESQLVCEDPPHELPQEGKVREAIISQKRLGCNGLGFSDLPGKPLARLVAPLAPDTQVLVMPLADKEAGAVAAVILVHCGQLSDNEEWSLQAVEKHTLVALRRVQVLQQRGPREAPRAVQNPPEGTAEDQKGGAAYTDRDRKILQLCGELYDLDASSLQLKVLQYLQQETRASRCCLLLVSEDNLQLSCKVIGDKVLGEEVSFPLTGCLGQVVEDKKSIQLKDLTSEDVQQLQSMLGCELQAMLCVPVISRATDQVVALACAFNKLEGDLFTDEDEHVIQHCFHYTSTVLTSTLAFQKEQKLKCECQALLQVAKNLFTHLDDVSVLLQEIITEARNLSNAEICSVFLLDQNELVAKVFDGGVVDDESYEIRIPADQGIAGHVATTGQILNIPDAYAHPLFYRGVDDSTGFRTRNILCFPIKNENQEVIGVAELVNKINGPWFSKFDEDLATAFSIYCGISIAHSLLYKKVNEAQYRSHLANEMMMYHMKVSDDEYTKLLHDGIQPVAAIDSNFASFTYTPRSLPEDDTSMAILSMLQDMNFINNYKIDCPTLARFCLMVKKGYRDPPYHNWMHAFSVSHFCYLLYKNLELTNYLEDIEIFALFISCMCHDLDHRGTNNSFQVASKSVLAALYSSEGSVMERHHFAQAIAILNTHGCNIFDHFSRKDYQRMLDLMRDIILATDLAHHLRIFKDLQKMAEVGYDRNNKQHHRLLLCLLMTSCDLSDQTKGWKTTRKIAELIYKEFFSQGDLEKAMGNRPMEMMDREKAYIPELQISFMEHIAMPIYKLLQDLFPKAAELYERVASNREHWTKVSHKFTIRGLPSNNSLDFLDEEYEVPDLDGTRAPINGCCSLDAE

COc1c(C(=O)N2CC[C@@H](C)[C@H](c3cc(C(F)F)nc4ncnn34)C2)cccc1C(F)(F)F [Compound 247]
IC50 [1]: 2.04 µM | Emax [1]: 85% | Emax [2]: 98% | IC50 [2, 4]: 155 nM | Emax [3, 5]: 77% | IC50 [3, 6]: 2.88 µM | Emax [3, 7]: 77% | IC50 [3, 8]: 2.88 µM

C[C@@H]1CCN(C(=O)c2ccnnc2)C[C@H]1c1cc(C(F)F)nc2ncnn12 [Compound 248]
IC50 [1]: > 10 µM | Emax [1]: 2% | Emax [2]: 95% | IC50 [2, 4]: 347 nM | Emax [3, 5]: 49% | IC50 [3, 6]: 10.5 µM | Emax [3, 7]: 49% | IC50 [3, 8]: 10.5 µM

C[C@@H]1CCN(C(=O)c2cncnc2)C[C@H]1c1cc(C(F)F)nc2ncnn12 [Compound 249]
IC50 [1]: > 10 µM | Emax [1]: 10% | Emax [2]: 95% | IC50 [2, 4]: 372 nM | Emax [3, 5]: 45% | IC50 [3, 6]: > 10 µM | Emax [3, 7]: 45% | IC50 [3, 8]: > 10 µM

C[C@@H]1CCN(C(=O)c2cc(F)ccn2)C[C@H]1c1cc(C(F)F)nc2ncnn12 [Compound 250]
IC50 [1]: > 10 µM | Emax [1]: 28% | Emax [2]: 99% | IC50 [2, 4]: 132 nM | Emax [3, 5]: 64% | IC50 [3, 6]: 4.9 µM | Emax [3, 7]: 64% | IC50 [3, 8]: 4.9 µM

C[C@@H]1CCN(C(=O)c2ccc(F)cn2)C[C@H]1c1cc(C(F)F)nc2ncnn12 [Compound 251]
IC50 [1]: > 10 µM | Emax [1]: 17% | Emax [2]: 98% | IC50 [2, 4]: 282 nM | Emax [3, 5]: 53% | IC50 [3, 6]: 8.71 µM | Emax [3, 7]: 53% | IC50 [3, 8]: 8.71 µM

Cc1nc(C(=O)N2CC[C@@H](C)[C@H](c3cc(C(F)F)nc4ncnn34)C2)c(C)o1 [Compound 252]
IC50 [1]: > 10 µM | Emax [1]: 17% | Emax [2]: 96% | IC50 [2, 4]: 708 nM | Emax [3, 5]: 66% | IC50 [3, 6]: 6.76 µM | Emax [3, 7]: 66% | IC50 [3, 8]: 6.76 µM

C[C@@H]1CCN(C(=O)c2ncccc2C(F)(F)F)C[C@H]1c1cc(C(F)F)nc2ncnn12 [Compound 253]
IC50 [1]: > 10 µM | Emax [1]: 17% | Emax [2]: 95% | IC50 [2, 4]: 457 nM | Emax [3, 5]: 39% | IC50 [3, 6]: > 10 µM | Emax [3, 7]: 39% | IC50 [3, 8]: > 10 µM

C[C@@H]1CCN(C(=O)c2ccc(F)nc2)C[C@H]1c1cc(C(F)F)nc2ncnn12 [Compound 254]
IC50 [1]: > 10 µM | Emax [1]: 25% | Emax [2]: 99% | IC50 [2, 4]: 107 nM | Emax [3, 5]: 70% | IC50 [3, 6]: 3.8 µM | Emax [3, 7]: 70% | IC50 [3, 8]: 3.8 µM

C[C@@H]1CCN(C(=O)c2cnc(CF)cn2)C[C@H]1c1cc(C(F)F)nc2ncnn12 [Compound 255]
IC50 [1]: > 10 µM | Emax [1]: 28% | Emax [2]: 95% | IC50 [2, 4]: 269 nM | Emax [3, 5]: 58% | IC50 [3, 6]: 7.76 µM | Emax [3, 7]: 58% | IC50 [3, 8]: 7.76 µM

C[C@@H]1CCN(C(=O)c2ccncn2)C[C@H]1c1cc(C(F)F)nc2ncnn12 [Compound 256]
IC50 [1]: > 10 µM | Emax [1]: 12% | Emax [2]: 97% | IC50 [2, 4]: 324 nM | Emax [3, 5]: 48% | Emax [3, 7]: 48%

C[C@@H]1CCN(C(=O)c2cnccn2)C[C@H]1c1cc(C(F)F)nc2ncnn12 [Compound 257]
IC50 [1]: > 10 µM | Emax [1]: 15% | Emax [2]: 95% | IC50 [2, 4]: 263 nM | Emax [3, 5]: 45% | IC50 [3, 6]: > 10 µM | Emax [3, 7]: 45% | IC50 [3, 8]: > 10 µM

C[C@@H]1CCN(C(=O)c2cc(C(C)(C)C)on2)C[C@H]1c1cc(C(F)F)nc2ncnn12 [Compound 258]
IC50 [1]: 1.55 µM | Emax [1]: 89% | Emax [2]: 99% | IC50 [2, 4]: 151 nM | Emax [3, 5]: 90% | IC50 [3, 6]: 1.26 µM | Emax [3, 7]: 90% | IC50 [3, 8]: 1.26 µM

C[C@@H]1CCN(C(=O)c2cc(C(C)(C)C)cc(C(C)(C)C)c2)C[C@H]1c1cc(C(F)F)nc2ncnn12 [Compound 259]
IC50 [1]: 3.55 µM | Emax [1]: 82% | IC50 ([2]; hPDE2A pIC50): 427 nM | Emax [2]: 99% | Emax [3, 5]: 92% | IC50 [3, 6]: 1.7 µM | Emax [3, 7]: 92% | IC50 [3, 8]: 1.7 µM

Cc1oncc1C(=O)N1CC[C@@H](C)[C@H](c2cc(C(F)F)nc3ncnn23)C1 [Compound 260]
IC50 [1]: > 10 µM | Emax [1]: 23% | Emax [2]: 97% | IC50 [2, 4]: 138 nM | Emax [3, 5]: 74% | IC50 [3, 6]: 2.95 µM | Emax [3, 7]: 74% | IC50 [3, 8]: 2.95 µM

C[C@@H]1CCN(C(=O)c2nccnc2N)C[C@H]1c1cc(C(F)F)nc2ncnn12 [Compound 261]
IC50 [1]: > 10 µM | Emax [1]: 19% | Emax [2]: 95% | IC50 [2, 4]: 363 nM | Emax [3, 5]: 45% | IC50 [3, 6]: > 10 µM | Emax [3, 7]: 45% | IC50 [3, 8]: > 10 µM

C[C@@H]1CCN(C(=O)c2cccnc2F)C[C@H]1c1cc(C(F)F)nc2ncnn12 [Compound 262]
IC50 [1]: > 10 µM | Emax [1]: 37% | Emax [2]: 101% | IC50 [2, 4]: 155 nM | Emax [3, 5]: 74% | IC50 [3, 6]: 3.24 µM | Emax [3, 7]: 74% | IC50 [3, 8]: 3.24 µM

Cc1nc(C(F)(F)F)ccc1C(=O)N1CC[C@@H](C)[C@H](c2cc(C(F)F)nc3ncnn23)C1 [Compound 263]
IC50 [1]: 4.9 µM | Emax [1]: 65% | Emax [2]: 99% | IC50 [2, 4]: 129 nM | Emax [3, 5]: 64% | IC50 [3, 6]: 5.13 µM | Emax [3, 7]: 64% | IC50 [3, 8]: 5.13 µM

Cc1nc(C)c(C(=O)N2CC[C@@H](C)[C@H](c3cc(C(F)F)nc4ncnn34)C2)s1 [Compound 264]
IC50 [1]: 10.5 µM | Emax [1]: 47% | Emax [2]: 100% | IC50 [2, 4]: 105 nM | Emax [3, 5]: 74% | IC50 [3, 6]: 3.31 µM | Emax [3, 7]: 74% | IC50 [3, 8]: 3.31 µM

COc1ccc(C(=O)N2CC[C@@H](C)[C@H](c3cc(C(F)F)nc4ncnn34)C2)cc1C#N [Compound 265]
IC50 [1]: 6.31 µM | Emax [1]: 55% | Emax [2]: 102% | IC50 [2, 4]: 2.4 nM | Emax [3, 5]: 98% | IC50 [3, 6]: 0.0372 µM | Emax [3, 7]: 98% | IC50 [3, 8]: 0.0372 µM

C[C@@H]1CCN(C(=O)c2cc(C(C)(C)C)nc(C(C)(C)C)c2)C[C@H]1c1cc(C(F)F)nc2ncnn12 [Compound 266]
IC50 [1]: 5.37 µM | Emax [1]: 74% | Emax [2]: 100% | IC50 [2, 4]: 417 nM | Emax [3, 5]: 89% | IC50 [3, 6]: 2.63 µM | Emax [3, 7]: 89% | IC50 [3, 8]: 2.63 µM

C[C@@H]1CCN(C(=O)c2c(Cl)cncc2Cl)C[C@H]1c1cc(C(F)F)nc2ncnn12 [Compound 268]
IC50 [1]: > 10 µM | Emax [1]: 13% | Emax [2]: 82% | IC50 [2, 4]: 1910 nM | Emax [3, 5]: 39% | IC50 [3, 6]: > 10 µM | Emax [3, 7]: 39% | IC50 [3, 8]: > 10 µM

Cc1cc(C(=O)N2[C@H]3CC[C@@H]2[C@H](c2cc(C(F)F)nc4ncnn24)CC3)cc(C2CC2)n1 [Compound 274]
IC50 [1]: > 10 µM | Emax [1]: 7% | Emax [2]: 97% | IC50 [2, 4]: 288 nM | Emax [3, 5]: 63% | IC50 [3, 6]: 6.03 µM | Emax [3, 7]: 63% | IC50 [3, 8]: 6.03 µM

COc1nc(C2CC2)cc(C(=O)N2CC[C@@H](C)[C@H](c3cc(C(F)F)nc4ncnn34)C2)c1F [Compound 276]
IC50 [1]: 1.29 µM | Emax [1]: 93% | Emax [2]: 100% | IC50 [2, 4]: 2.24 nM | Emax [3, 7]: 98% | IC50 [3, 8]: 0.166 µM

Cc1nc(C2CC2)cc(C(=O)N2CC[C@@H](C)[C@H](c3cc(C(F)F)nc4ncnn34)C2)c1F [Compound 279]
IC50 [1]: 2.82 µM | Emax [1]: 86% | Emax [2]: 99% | IC50 [2, 4]: 2.24 nM | Emax [3, 7]: 96% | IC50 [3, 8]: 0.316 µM

Cc1cc(C(=O)N2[C@H]3CC[C@@H]2[C@H](c2cc(C(F)F)nc4ncnn24)CC3)cc(C(F)(F)F)n1 [Compound 285]
IC50 [1]: > 10 µM | Emax [1]: 21% | Emax [2]: 65% | IC50 [2, 4]: 6920 nM | Emax [3, 7]: 37% | IC50 [3, 8]: > 10 µM

COCc1cc(C(=O)N2CC[C@@H](C)[C@H](c3cc(C(F)F)nc4ncnn34)C2)cc(C)n1 [Compound 288]
IC50 [1]: > 10 µM | Emax [1]: 44% | Emax [2]: 101% | IC50 [2, 4]: 2.69 nM | Emax [3, 7]: 93% | IC50 [3, 8]: 0.417 µM

Cc1cc2ccc(C(=O)N3CC[C@@H](C)[C@H](c4cc(C(F)F)nc5ncnn45)C3)cn2c1 [Compound 289]
IC50 [1]: 0.178 µM | Emax [1]: 98% | Emax [2]: 100% | IC50 [2, 4]: 2.4 nM | Emax [3, 7]: 99% | IC50 [3, 8]: 0.0631 µM

Cc1ccc2cc(C(=O)N3[C@H]4CC[C@H](c5cc(C(F)F)nc6ncnn56)[C@@H]3CC4)c(C)nc2c1 [Compound 298]
IC50 [1]: > 10 µM | Emax [1]: 25% | Emax [2]: 99% | IC50 [2, 4]: 18.6 nM | Emax [3, 7]: 47% | IC50 [3, 8]: > 10 µM

O=C(c1nc2ccccc2o1)N1[C@H]2CC[C@H](c3cc(C(F)F)nc4ncnn34)[C@@H]1CC2 [Compound 304]
IC50 [1]: 9.12 µM | Emax [1]: 48% | Emax [2]: 100% | IC50 [2, 4]: 39.8 nM | Emax [3, 7]: 45% | IC50 [3, 8]: > 10 µM

Cc1nc2cccc(C(=O)N3[C@H]4CC[C@H](c5cc(C(F)F)nc6ncnn56)[C@@H]3CC4)c2o1 [Compound 305]
IC50 [1]: > 10 µM | Emax [1]: 7% | Emax [2]: 100% | IC50 [2, 4]: 87.1 nM | Emax [3, 7]: 57% | IC50 [3, 8]: 7.08 µM
